A word on the Ki: it is the dissociation constant of the complex between target and ligand, obtained from inhibition or displacement.

One test has as its target Mcl-1 (Homo sapiens (Human), UniProt Q07820). Put plainly: TR-FRET binding assay, FITC-Bak peptide and MBP-tagged Mcl-1. The conditions noted are these: read-out: Ki for Inhibition of Mcl-1 by TR-FRET assay. As to the method:
Compounds are diluted in DMSO in a 16-point, semilog serial dilution scheme. […] The plate was mixed and incubated for 3 hours at room temperature. […] TR-FRET signal is plotted and IC50 and Ki values are calculated in the same manner as the fluorescence polarization anisotropy based competition assays.
On the technique in general: Time-resolved FRET reads energy transfer from a long-lived donor to a nearby acceptor.

In test [1] the test system is H929 human cancer cell lines. Put plainly: Cellular viability / proliferation (Cell TiterGlo, 72 h). The class given is cell-based. The conditions noted are these: Homo sapiens, NCI-H929, 72 h, read-out: GI50 on cellular proliferation of H929 human cancer cell lines, H929 cells, 72 h, Cell TiterGlo, 10% FBS. The gist of the method: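 Top dose 50 μM, serially diluted 2-fold, applied one day after seeding (1,000 cells/well, 10% FBS), DMSO below 1%.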
(ATP-based viability assays read luminescence as a measure of living cells.)

Mcl-1, sequence (Q07820 172-327): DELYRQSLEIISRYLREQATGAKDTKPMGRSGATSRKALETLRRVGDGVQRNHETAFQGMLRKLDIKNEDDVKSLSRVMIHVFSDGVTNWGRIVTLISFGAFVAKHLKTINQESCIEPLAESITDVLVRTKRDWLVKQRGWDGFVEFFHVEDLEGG

For `Cc1cc(OCCCc2c3n(c4c(-c5c(C)cc(O)cc5C)c(Cl)ccc24)[C@H](C)CNC3=O)cc(C)c1Cl` [Example 488, (R)-7-chloro-10-(3-(4-chloro-3,5-dimethylphenoxy)propyl)-6-(4-hydroxy-2,6-dimethylphenyl)-4-methyl-3,4-dihydropyrazino[1,2-a]indol-1(2H)-one], the Ki on Mcl-1 was determined as 39 nM. Also, the GI50 in test [1] turned out to be 8700 nM.
For the molecule `Cc1cc(OCCCc2c3n(c4c(-c5c(C)nn(C)c5C)c(Cl)ccc24)[C@H](C)CN(c2cn(C)c4ccc(C(=O)O)nc24)C3=O)cc(C)c1Cl` [Example 489, (R)-3-(7-Chloro-10-(3-(4-chloro-3,5-dimethylphenoxy)propyl)-4-methyl-1-oxo-6-(1,3,5-trimethyl-1H-pyrazol-4-yl)-3,4-dihydropyrazino[1,2-a]indol-2(1H)-yl)-1-methyl-1H-pyrrolo[3,2-b]pyridine-5-carboxylic acid], the Ki at Mcl-1 was below 0.2 nM. Moreover, in test [1], the GI50 was below 200 nM.
As for `Cc1cc(OCCCc2c3n(c4c(-c5c(C)nn(C)c5C)c(Cl)ccc24)[C@H](C)CN(c2cc(CN4CCN(C)CC4)cc4c(C(=O)O)cn(C)c24)C3=O)cc(C)c1Cl` [Example 490, (R)-7-(7-Chloro-10-(3-(4-chloro-3,5-dimethylphenoxy)propyl)-4-methyl-1-oxo-6-(1,3,5-trimethyl-1H-pyrazol-4-yl)-3,4-dihydropyrazino[1,2-a]indol-2(1H)-yl)-1-methyl-5-((4-methylpiperazin-1-yl)methyl)-1H-indole-3-carboxylic acid], the inhibition constant (Ki) at Mcl-1 came out at 0.29 nM. In test [1], the GI50 was 810 nM.
On to `COCCn1c(C(=O)O)cc2c(OC)ccc(N3C[C@@H](C)n4c(c(CCCOc5cc(C)c(Cl)c(C)c5)c5ccc(Cl)c(-c6c(C)ncnc6C)c54)C3=O)c21` [Example 493, (R)-7-(7-chloro-10-(3-(4-chloro-3,5-dimethylphenoxy)propyl)-6-(4,6-dimethylpyrimidin-5-yl)-4-methyl-1-oxo-3,4-dihydropyrazino[1,2-a]indol-2(1H)-yl)-4-methoxy-1-(2-methoxyethyl)-1H-indole-2-carboxylic acid], for which, on Mcl-1, the Ki was below 0.2 nM. In addition, in test [1], the GI50 was below 200 nM.
With `Cc1cc(OCCCc2c3n(c4c(-c5c(C)cc(O)cc5C)c(Cl)ccc24)[C@H](C)CN(c2cn(C)c4ccc(C(=O)O)cc24)C3=O)cc(C)c1Cl` [Example 496, (R)-3-(7-chloro-10-(3-(4-chloro-3,5-dimethylphenoxy)propyl)-6-(4-hydroxy-2,6-dimethylphenyl)-4-methyl-1-oxo-3,4-dihydropyrazino[1,2-a]indol-2(1H)-yl)-1-methyl-1H-indole-5-carboxylic acid], the inhibition constant (Ki) on Mcl-1 was 0.64 nM. In addition, the GI50 in test [1] is 1200 nM.
Consider `Cc1cc(OCCCc2c3n(c4c(-c5c(C)cc(OCc6ccccn6)cc5C)c(Cl)ccc24)[C@H](C)CN(c2cn(C)c4ccc(C(=O)O)cc24)C3=O)cc(C)c1Cl` [Example 497, (R)-3-(7-chloro-10-(3-(4-chloro-3,5-dimethylphenoxy)propyl)-6-(2,6-dimethyl-4-(pyridin-2-ylmethoxy)phenyl)-4-methyl-1-oxo-3,4-dihydropyrazino[1,2-a]indol-2(1H)-yl)-1-methyl-1H-indole-5-carboxylic acid], for which, at Mcl-1, the inhibition constant Ki was 1.3 nM. Besides, the GI50 in test [1] came out at 1700 nM.
For `Cc1cc(OCCCc2c3n(c4c(-c5c(C)nn(C)c5C)c(Cl)ccc24)[C@H](C)CN(c2cc(NCCN(C)C)cc4c(C(=O)O)cn(C)c24)C3=O)cc(C)c1Cl` [Example 498, (R)-7-(7-chloro-10-(3-(4-chloro-3,5-dimethylphenoxy)propyl)-4-methyl-1-oxo-6-(1,3,5-trimethyl-1H-pyrazol-4-yl)-3,4-dihydropyrazino[1,2-a]indol-2(1H)-yl)-5-((2-(dimethylamino)ethyl)amino)-1-methyl-1H-indole-3-carboxylic acid], on Mcl-1, the inhibitory constant (Ki) stood at 0.58 nM. For the same molecule, in test [1], the GI50 was 1900 nM.
With `Cc1cc(N2C[C@@H](C)n3c(c(CCCOc4cc(C)c(Cl)c(C)c4)c4ccc(Cl)c(-c5c(C)nn(C)c5C)c43)C2=O)c2c(c1)cc(C(=O)O)n2Cc1cccc(N2CCOCC2)n1` [Example 499, (R)-7-(7-chloro-10-(3-(4-chloro-3,5-dimethylphenoxy)propyl)-4-methyl-1-oxo-6-(1,3,5-trimethyl-1H-pyrazol-4-yl)-3,4-dihydropyrazino[1,2-a]indol-2(1H)-yl)-5-methyl-1-((6-morpholinopyridin-2-yl)methyl)-1H-indole-2-carboxylic acid], on Mcl-1, the inhibition constant (Ki) stood at 0.21 nM. Also, the GI50 in test [1] amounted to 740 nM.
As for `Cc1cc(N2C[C@@H](C)n3c(c(CCCOc4cc(C)c(Cl)c(C)c4)c4ccc(Cl)c(-c5c(C)nn(C)c5C)c43)C2=O)c2c(c1)cc(C(=O)O)n2Cc1cc(N2CCOCC2)ccn1` [Example 500, (R)-7-(7-chloro-10-(3-(4-chloro-3,5-dimethylphenoxy)propyl)-4-methyl-1-oxo-6-(1,3,5-trimethyl-1H-pyrazol-4-yl)-3,4-dihydropyrazino[1,2-a]indol-2(1H)-yl)-5-methyl-1-((4-morpholinopyridin-2-yl)methyl)-1H-indole-2-carboxylic acid], the inhibition constant (Ki) on Mcl-1 was below 0.2 nM. In addition, the GI50 in test [1] turned out to be 330 nM.
For `Cc1cc(OCCCc2c3n(c4c(-c5c(C)nc(CN6CCN(C)CC6)nc5C)c(Cl)ccc24)[C@H](C)CN(c2cn(C)c4ccc(-c5ncn(C)n5)cc24)C3=O)cc(C)c1Cl` [Example 502, (R)-7-chloro-10-(3-(4-chloro-3,5-dimethylphenoxy)propyl)-6-(4,6-dimethyl-2-((4-methylpiperazin-1-yl)methyl)pyrimidin-5-yl)-4-methyl-2-(1-methyl-5-(1-methyl-1H-1,2,4-triazol-3-yl)-1H-indol-3-yl)-3,4-dihydropyrazino[1,2-a]indol-1(2H)-one], the Ki at Mcl-1 amounted to 2.9 nM. The GI50 in test [1] was below 200 nM.
`Cc1cc(OCCCc2c3n(c4c(-c5c(C)nc(CN6CCOCC6)nc5C)c(Cl)ccc24)[C@H](C)CN(c2cn(C)c4ccc(-c5ncn(C)n5)cc24)C3=O)cc(C)c1Cl` [Example 503, (R)-7-chloro-10-(3-(4-chloro-3,5-dimethylphenoxy)propyl)-6-(4,6-dimethyl-2-(morpholinomethyl)pyrimidin-5-yl)-4-methyl-2-(1-methyl-5-(1-methyl-1H-1,2,4-triazol-3-yl)-1H-indol-3-yl)-3,4-dihydropyrazino[1,2-a]indol-1(2H)-one]: on Mcl-1, the inhibitory constant (Ki) is 3.7 nM. Further, in test [1], the GI50 was below 200 nM.
The like results for `Cc1cc(N2C[C@@H](C)n3c(c(CCCOc4cc(C)c(Cl)c(C)c4)c4ccc(Cl)c(-c5c(C)nn(C)c5C)c43)C2=O)c2c(c1)cc(C(=O)O)n2Cc1cc(N2CCCCC2)ccn1` [Example 504, (R)-7-(7-Chloro-10-(3-(4-chloro-3,5-dimethylphenoxy)propyl)-4-methyl-1-oxo-6-(1,3,5-trimethyl-1H-pyrazol-4-yl)-3,4-dihydropyrazino[1,2-a]indol-2(1H)-yl)-5-methyl-1-((4-(piperidin-1-yl)pyridin-2-yl)methyl)-1H-indole-2-carboxylic acid] were, in that order, 0.23 nM and 1000 nM.
For `Cc1cc(N2C[C@@H](C)n3c(c(CCCOc4cc(C)c(Cl)c(C)c4)c4ccc(Cl)c(-c5c(C)nn(C)c5C)c43)C2=O)c2c(c1)cc(C(=O)O)n2Cc1cccc(N2CCCCC2)n1` [Example 505, (R)-7-(7-Chloro-10-(3-(4-chloro-3,5-dimethylphenoxy)propyl)-4-methyl-1-oxo-6-(1,3,5-trimethyl-1H-pyrazol-4-yl)-3,4-dihydropyrazino[1,2-a]indol-2(1H)-yl)-5-methyl-1-((6-(piperidin-1-yl)pyridin-2-yl)methyl)-1H-indole-2-carboxylic acid], the Ki at Mcl-1 was 1.3 nM. For the same molecule, the GI50 in test [1] is 3200 nM.
As to `Cc1cc(OCCCc2c3n(c4c(-c5c(C)nn(C)c5C)c(Cl)ccc24)[C@H](C)CN(c2cc(CO)cc4c(C(=O)O)cn(C)c24)C3=O)cc(C)c1Cl` [Example 506, (R)-7-(7-Chloro-10-(3-(4-chloro-3,5-dimethylphenoxy)propyl)-4-methyl-1-oxo-6-(1,3,5-trimethyl-1H-pyrazol-4-yl)-3,4-dihydropyrazino[1,2-a]indol-2(1H)-yl)-5-(hydroxymethyl)-1-methyl-1H-indole-3-carboxylic acid], the Ki on Mcl-1 was below 0.2 nM. In test [1], the GI50 was 1300 nM.
In the case of `Cc1cc(OCCCc2c3n(c4c(-c5c(C)cc(OCCN6CCCC6)cc5C)c(Cl)ccc24)[C@H](C)CN(c2cn(C)c4ccc(C(=O)O)cc24)C3=O)cc(C)c1Cl` [Example 508, (R)-3-(7-chloro-10-(3-(4-chloro-3,5-dimethylphenoxy)propyl)-6-(2,6-dimethyl-4-(2-(pyrrolidin-1-yl)ethoxy)phenyl)-4-methyl-1-oxo-3,4-dihydropyrazino[1,2-a]indol-2(1H)-yl)-1-methyl-1H-indole-5-carboxylic acid], the inhibitory constant (Ki) on Mcl-1 stood at 2.4 nM. Moreover, the GI50 in test [1] is 450 nM.
As to `Cc1cc(OCCCc2c3n(c4c(-c5c(C)cc(OCCN(C)C)cc5C)c(Cl)ccc24)[C@H](C)CN(c2cn(C)c4ccc(C(=O)O)cc24)C3=O)cc(C)c1Cl` [Example 509, (R)-3-(7-chloro-10-(3-(4-chloro-3,5-dimethylphenoxy)propyl)-6-(4-(2-(dimethylamino)ethoxy)-2,6-dimethylphenyl)-4-methyl-1-oxo-3,4-dihydropyrazino[1,2-a]indol-2(1H)-yl)-1-methyl-1H-indole-5-carboxylic acid], the inhibition constant Ki at Mcl-1 was found to be 1.6 nM. The GI50 in test [1] is 390 nM.

(Values after US11596639B2, “Substituted indole Mcl-1 inhibitors” (Vanderbilt University, priority 2016, dated 2023).)
